In patent publication US20240270811A1, “Glycosylated Neuropeptide Derivative, Pharmaceutical Composition, Intranasal/Nasal Drop Formulation, and Use of Pharmaceutical Composition” (Tokyo University of Science Foundation, priority 2021, published 2024):
Where no end group is shown, it is not given here. The star is where a group is joined. X1 = CC(=O)N[C@@H]1[C@@H](O)[C@H](O[C@@H]2O[C@H](CO)[C@@H](O[C@@H]3O[C@H](CO[C@H]4O[C@H](CO)[C@@H](O)[C@H](O)[C@@H]4O[C@@H]4O[C@H](CO)[C@@H](O[C@@H]5O[C@H](CO[C@]6(C(=O)O)C[C@H](O)[C@@H](NC(C)=O)[C@H]([C@H](O)[C@H](O)CO)O6)[C@H](O)[C@H](O)[C@H]5O)[C@H](O)[C@H]4NC(C)=O)[C@@H](O)[C@H](O[C@H]4O[C@H](CO)[C@@H](O)[C@H](O)[C@@H]4O[C@@H]4O[C@H](CO)[C@@H](O[C@@H]5O[C@H](CO[C@]6(C(=O)O)C[C@H](O)[C@@H](NC(C)=O)[C@H]([C@H](O)[C@H](O)CO)O6)[C@H](O)[C@H](O)[C@H]5O)[C@H](O)[C@H]4NC(C)=O)[C@@H]3O)[C@H](O)[C@H]2NC(C)=O)[C@@H](CO)O[C@H]1NC(=O)C*

Columns and labels:
Format in all cases: in vivo, mouse
[1] = Distribution in brain by immunostaining of frozen brain sections (Example 6); details: 3.0 nmol/4 μL intranasal
Description: The distribution in the brain of a glycosylated GLP-2 derivative (11-sugar) after intranasally administered was evaluated by preparing frozen brain sections and subjecting the same to immunostaining. The brain sections were prepared from tissues around the hippocampus (HIP), dorsomedial nucleus of the hypothalamus (DMH), olfactory bulb (OB), and pons/principal sensory nucleus of trigeminal nerve (Pr5). The olfactory bulb includes olfactory nerves, which are assumed to be a pathway for the migration of GLP-2.
After anesthetizing 7-week-old male ddY mice with isoflurane using an all-in-one small animal anesthetizer, a 16% DMSO solution of a PAS-CPP-GLP-2 derivative (11-sugar) (3.0 nmol/4 μL) or 16% DMSO as a control was intranasally administered to the mice by the amount of 2 μL per nose cavity, 4 μL in total. The brain was isolated 5 minutes after the administration and 20 minutes after administration.
The brain isolated 5 minutes after the intranasal administration was subjected to infiltration fixation with 4% PFA at 4° C. overnight without performing perfusion fixation. The isolation of the brain 20 minutes after the intranasal administration was performed by the following process.
The mouse is fixed in a supine position under anesthesia with isoflurane, and the chest was incised. PBS and 4% PFA were perfused, in this order, from the left chamber of the heart throughout the whole body for fixing the tissue. The isolated brain was preserved in a 4% PFA solution. On the day following the isolation, the brain samples were substituted with 20% sucrose overnight (4° C.), and further with 30% sucrose overnight (4° C.). Thereafter, a frozen section with a thickness of 30 μm was prepared using a cryostat (CM3050S; Leica Microsystems).
The frozen brain section was mounted on a slide glass, and a circle was drawn around the section with a liquid blocker. A blocking buffer was added inside the circle and the section was subjected to blocking for 30 minutes at room temperature. Thereafter, the section was added with a first antibody solution including a GLP-2 polyclonal antibody, diluted 200 times with a blocking solution, and subjected to incubation for 1 hour at room temperature. After washing three times with 1×PBS, the section was added with a second antibody solution including Alexa Fluor (trademark) 568 Goat Anti-Mouse IgG H&L, diluted 500 times with a BSA/PBS solution, and subjected to incubation for 1 hour at room temperature. After washing three times with 1×PBS, the section was mounted with ProLong (trademark) Diamond Antifade Mountant. After confirming the solidification of the mountant, the section was subjected to fluorescent observation and imaging with a confocal laser microscope (TCS SP8; Leica) and a software (Leica Application Suite X Software; Leica).

[2] = Migration to central nervous system, optical imaging of brain sagittal sections (ICG-labelled derivatives); details: for fluorescence in brain section: 3.0 nmol/4 μL intranasal
Description: Administration solutions were prepared by completely dissolving a PAS-CPP-GLP-2 derivative (no sugar) labelled with ICG or a PAS-CPP-GLP-2 derivative (11-sugar) labelled with ICG in DMSO, and adjusting the final concentration of DMSO to 16% by adding PBS.
The concentration of a PAS-CPP-GLP-2 derivative (no sugar) or a PAS-CPP-GLP-2 derivative (11-sugar) was adjusted to 3.0 nmol/4 μL.
After anesthetizing mice with isoflurane using an all-in-one small animal anesthetizer, the administration solutions or 16% DMSO as a control was intranasally administered to the mice by the amount of 2 μL per nose cavity, 4 μL in total.
In order to observe the migration to the brain over time, the brain was isolated 5 minutes, 10 minutes, 20 minutes, 60 minutes and 90 minutes after the intranasal administration, respectively, and subjected to infiltration fixation with 4% paraformaldehyde (4% PFA) solution overnight. Subsequently, a sagittal section with a thickness of 2 mm at the left and the right from the center of the brain was prepared using a brain matrix (RBM-2000S, ASI). The section was placed in a dish and analyzed with an optical imaging apparatus (Clairvivo OPT plus, Shimadzu Corporation) at an excitation wavelength of 785 nm, fluorescence wavelength of 849 nm, and an exposure time: 6 seconds.

[3] = Observation of section of trigeminal nerve after intranasal administration (FITC-labelled); details: 3.0 nmol/4 μL intranasal, 5 minutes
Description: After anesthetizing 7-week-old male ddY mice with isoflurane using an all-in-one small animal anesthetizer, a 16% DMSO solution of a PAS-CPP-GLP-2 derivative (11-sugar) labeled with FITC (3.0 nmol/4 μL) or 16% DMSO as a control was intranasally administered to the mice by the amount of 2 μL per nose cavity, 4 μL in total. The trigeminal nerve was isolated 5 minutes after the administration.
The trigeminal nerve was subjected to infiltration fixation with 4% PFA overnight. On the day following the isolation, the trigeminal nerve was substituted with 20% sucrose overnight (4° C.), and further with 30% sucrose overnight (4° C.). Thereafter, a frozen section with a thickness of 20 μm was prepared using a cryostat (CM3050S; Leica Microsystems).
The frozen section was mounted on a slide glass, and a circle was drawn around the section with a liquid blocker. To the inner side of the circle, 10 mM CuSO4/CH3COONH4 having an ability to suppress auto-fluorescence was added to immerse the section for 15 minutes. After washing three times with 1×PBS, a blocking buffer was added inside the circle and the section was subjected to blocking for 30 minutes at room temperature. […]

## FFLIPKGRRRRRRRRGGHADGSFSDEMNTILDNLAARDFINWLIQTKITDC(X1)-OH [PAS-CPP-GLP-2 (11-sugar)]
[1]; 5 minutes
  fluorescence at region around Pr5: fluorescence was observed intensely
  fluorescence at the other regions (HIP, DMH, OB): very little fluorescence was observed
[1]; 20 minutes
  fluorescence at DMH: observed clearly
  fluorescence at HIP: fluorescence was observed
  fluorescence at Pr5: florescence was observed
  fluorescence intensity at OB: weak
[2]; 5 minutes after administration
  fluorescence in brain section: fluorescence was observed
[2]; 10 minutes after administration
  fluorescence in brain section: fluorescence was observed intensively
[2]; 20 minutes after administration
  fluorescence in brain section: fluorescence was observed
[2]; 60 minutes after administration
  fluorescence in brain section: a relatively strong degree of fluorescence was observed
[2]; 90 minutes after administration
  fluorescence in brain section: fluorescence was not observed
[2]; intranasal, 5-90 minutes
  retention in brain compared with PAS-CPP-GLP-2 derivative (no sugar): remains in the brain for a longer time period
[3]
  fluorescence in section of trigeminal nerve (overlap of derivative and neural fibers): expresses yellow fluorescence
